# Test results published in patent publication US6627651B1, “Cyclic compounds and uses thereof” (Takeda Chemical Industries, Ltd., priority 1999, dated 2003).
row,melting point,Structure (SMILES)
1,282 to 283 °C,"Cc1ccc(-c2ccc3c(c2)C=C(C(=O)Nc2ccc(C4=NCCN4)cc2)CCO3)cc1 [Compound 92, N-[4-(2-imidazolin-2-yl)phenyl]-7-(4-methylphenyl)-2,3-dihydro-1-benzooxepine-4-carboxamide]"
2,170 to 171 °C,"COC(=O)N1CCN=C1Cc1ccc(NC(=O)C2=Cc3cc(-c4ccc(C)cc4)ccc3OCC2)cc1 [Compound 96, N-[4-[(1-methoxycarbonyl-2-imidazolin-2-yl)methyl]phenyl]-7-(4-methylphenyl)-2,3-dihydro-1-benzooxepine-4-carboxamide]"
3,87 to 88 °C,"Cc1ccc(COc2cccc(/C=C/c3ccc(CN4CCCCC4)cc3)c2)cc1 [Compound 97, (E)-1-[4-[3-(4-methylbenzyloxy)styryl]benzyl]piperidine]"
4,189 to 192 °C,"Cc1ccc(COc2cccc(/C=C/c3ccc(C[N+]4(C)CCCCC4)cc3)c2)cc1.[I-] [Compound 98, (E)-1-methyl-1-[4-[3-(4-methylbenzyloxy)styryl]benzyl]piperidinium iodide]"
5,136 to 138 °C,"CCCOCCOc1ccccc1COc1ccc2c(c1)C=C(C(=O)Nc1ccc(CN(C)C3CCOCC3)cc1)CCS2(=O)=O [Compound 99, N-[4-[[N-methyl-N-(tetrahydropyran-4-yl)amino]methyl]phenyl]-7-[[2-(2-propoxyethoxy)benzyl]oxy]-1,1-dioxo-2,3-dihydro-1-benzothiepine-4-carboxamide]"
6,211 to 214 °C,"CCOc1ccccc1COc1ccc2c(c1)C=C(C(=O)Nc1ccc(CN(C)C3CCOCC3)cc1)CCS2(=O)=O [Compound 101, 7-[(2-ethoxybenzyl)oxy]-N-[4-[[N-methyl-N-(tetrahydropyran-4-yl)amino]methyl]phenyl]-1,1-dioxo-2,3-dihydro-1-benzothiepine-4-carboxamide]"
7,223 to 225 °C,"COc1ccccc1COc1ccc2c(c1)C=C(C(=O)Nc1ccc(CN(C)C3CCOCC3)cc1)CCS2(=O)=O [Compound 102, 7-[(2-methoxybenzyl)oxy]-N-[4-[[N-methyl-N-(tetrahydropyran-4-yl)amino]methyl]phenyl]-1,1-dioxo-2,3-dihydro-1-benzothiepine-4-carboxamide]"
8,205 to 207 °C,"CN(Cc1ccc(NC(=O)C2=Cc3cc(OCc4ccccc4Cl)ccc3S(=O)(=O)CC2)cc1)C1CCOCC1 [Compound 103, 7-[(2-chlorobenzyl)oxy]-N-[4-[[N-methyl-N-(tetrahydropyran-4-yl)amino]methyl]phenyl]-1,1-dioxo-2,3-dihydro-1-benzothiepine-4-carboxamide]"
9,132 to 136 °C,"CCOCCOc1ccccc1COc1ccc2c(c1)C=C(C(=O)Nc1ccc(CN(C)C3CCOCC3)cc1)CCS2(=O)=O [Compound 104, 7-[[2-(2-ethoxyethoxy)benzyl]oxy]-N-[4-[[N-methyl-N-(tetrahydropyran-4-yl)amino]methyl]phenyl]-1,1-dioxo-2,3-dihydro-1-benzothiepine-4-carboxamide]"
10,153 to 154 °C,"CCCOc1cccc(CCOc2ccc3c(c2)C=C(C(=O)Nc2ccc(CN(C)C4CCOCC4)cc2)CCS3(=O)=O)c1 [Compound 105, N-[4-[[N-methyl-N-(tetrahydropyran-4-yl)amino]methyl]phenyl]-7-[(3-propoxyphenethyl)oxy]-1,1-dioxo-2,3-dihydro-1-benzothiepine-4-carboxamide]"
11,161 to 162 °C,"CCCOc1ccccc1CCOc1ccc2c(c1)C=C(C(=O)Nc1ccc(CN(C)C3CCOCC3)cc1)CCS2(=O)=O [Compound 106, N-[4-[[N-methyl-N-(tetrahydropyran-4-yl)amino]methyl]phenyl]-7-[(2-propoxyphenethyl)oxy]-1,1-dioxo-2,3-dihydro-1-benzothiepine-4-carboxamide]"
12,185 to 187 °C,"CCOCCOc1ccc(COc2ccc3c(c2)C=C(C(=O)Nc2ccc(CN(C)C4CCOCC4)cc2)CCS3(=O)=O)cc1 [Compound 107, N-[4-[[N-methyl-N-(tetrahydropyran-4-yl)amino]methyl]phenyl]-7-[[4-(2-ethoxyethoxy)benzyl]oxy]-1,1-dioxo-2,3-dihydro-1-benzothiepine-4-carboxamide]"
13,146 to 147 °C,"CCCOCCOc1ccc(COc2ccc3c(c2)C=C(C(=O)Nc2ccc(CN(C)C4CCOCC4)cc2)CCS3(=O)=O)cc1OCC [Compound 110, 7-[[3-ethoxy-4-(2-propoxyethoxy)benzyl]oxy]-N-[4-[[N-methyl-N-(tetrahydropyran-4-yl)amino]methyl]phenyl]-1,1-dioxo-2,3-dihydro-1-benzothiepine-4-carboxamide]"
14,139 to 141 °C,"CCCOc1ccc(Oc2ccc3c(c2)C=C(C(=O)Nc2ccc(CN(C)C4CCOCC4)cc2)CCS3(=O)=O)cc1 [Compound 111, N-[4-[[N-methyl-N-(tetrahydropyran-4-yl)amino]methyl]phenyl]-7-(4-propoxyphenoxy)-1,1-dioxo-2,3-dihydro-1-benzothiepine-4-carboxamide]"
15,143 to 144 °C,"CCCOc1cccc(Oc2ccc3c(c2)C=C(C(=O)Nc2ccc(CN(C)C4CCOCC4)cc2)CCS3(=O)=O)c1 [Compound 112, N-[4-[[N-methyl-N-(tetrahydropyran-4-yl)amino]methyl]phenyl]-7-(3-propoxyphenoxy)-1,1-dioxo-2,3-dihydro-1-benzothiepine-4-carboxamide]"
16,147 to 149 °C,"CCCc1ccc(Oc2ccc3c(c2)C=C(C(=O)Nc2ccc(CN(C)C4CCOCC4)cc2)CCS3(=O)=O)cc1 [Compound 113, N-[4-[[N-methyl-N-(tetrahydropyran-4-yl)amino]methyl]phenyl]-7-(4-propylphenoxy)-1,1-dioxo-2,3-dihydro-1-benzothiepine-4-carboxamide]"
17,159 to 160 °C,"CCCOCCOc1ccc(Oc2ccc3c(c2)C=C(C(=O)Nc2ccc(CN(C)C4CCOCC4)cc2)CCS3(=O)=O)cc1OCC [Compound 114, 7-[3-ethoxy-4-(2-propoxyethoxy)phenoxy]-N-[4-[[N-methyl-N-(tetrahydropyran-4-yl)amino]methyl]phenyl]-1,1-dioxo-2,3-dihydro-1-benzothiepine-4-carboxamide]"
18,162 to 164 °C,"CCCOCc1ccccc1Oc1ccc2c(c1)C=C(C(=O)Nc1ccc(CN(C)C3CCOCC3)cc1)CCS2(=O)=O [Compound 115, N-[4-[[N-methyl-N-(tetrahydropyran-4-yl)amino]methyl]phenyl]-7-(2-propoxymethylphenoxy)-1,1-dioxo-2,3-dihydro-1-benzothiepine-4-carboxamide]"
19,181 to 185 °C,"COc1cccc(COc2ccc3c(c2)C=C(C(=O)Nc2ccc(CN(C)C4CCOCC4)cc2)CCS3(=O)=O)c1 [Compound 117, 7-(3-methoxybenzyloxy)-N-[4-[[N-methyl-N-(tetrahydropyran-4-yl)amino]methyl]phenyl]-1,1-dioxo-2,3-dihydro-1-benzothiepine-4-carboxamide]"
20,189 to 192 °C,"CCOc1cccc(COc2ccc3c(c2)C=C(C(=O)Nc2ccc(CN(C)C4CCOCC4)cc2)CCS3(=O)=O)c1 [Compound 118, 7-(3-ethoxybenzyloxy)-N-[4-[[N-methyl-N-(tetrahydropyran-4-yl)amino]methyl]phenyl]-1,1-dioxo-2,3-dihydro-1-benzothiepine-4-carboxamide]"
21,184 to 186 °C,"CCCOc1ccccc1CCCOc1ccc2c(c1)C=C(C(=O)Nc1ccc(CN(C)C3CCOCC3)cc1)CCS2(=O)=O [Compound 119, N-[4-[[N-methyl-N-(tetrahydropyran-4-yl)amino]methyl]phenyl]-7-[3-(2-propoxyphenyl)propoxy]-1,1-dioxo-2,3-dihydro-1-benzothiepine-4-carboxamide]"
22,186 to 188 °C,"CCOc1ccc(COc2ccc3c(c2)C=C(C(=O)Nc2ccc(CN(C)C4CCOCC4)cc2)CCS3(=O)=O)cc1OCC [Compound 122, N-[4-[[N-methyl-N-(tetrahydropyran-4-yl)amino]methyl]phenyl]-7-(3,4-diethoxybenzyloxy)-1,1-dioxo-2,3-dihydro-1-benzothiepine-4-carboxamide]"
23,156 to 157 °C,"CCOCCCc1ccc(Oc2ccc3c(c2)C=C(C(=O)Nc2ccc(CN(C)C4CCOCC4)cc2)CCS3(=O)=O)cc1 [Compound 125, 7-[4-(3-ethoxypropyl)phenoxy]-N-[4-[[N-methyl-N-(tetrahydro-2H-pyran-4-yl)amino]methyl]phenyl]-1,1-dioxo-2,3-dihydro-1-benzothiepine-4-carboxamide]"
24,111 to 113 °C,"CCOCCOc1c(C)cc(Oc2ccc3c(c2)C=C(C(=O)Nc2ccc(CN(C)C4CCOCC4)cc2)CCS3(=O)=O)cc1C [Compound 126, 7-[4-(2-ethoxyethoxy)-3,5-dimethylphenoxy]-N-[4-[[N-methyl-N-(tetrahydro-2H-pyran-4-yl)amino]methyl]phenyl]-1,1-dioxo-2,3-dihydro-1-benzothiepine-4-carboxamide]"
